These results are taken from patent US9273077B2, “Phosphorus derivatives as kinase inhibitors” (ARIAD Pharmaceuticals, Inc., priority 2008, dated 2016).

A word on the pIC50: it is the negative decadic logarithm of the IC50, by convention in mol/L. A higher pIC50 goes with a low IC50.

pIC50: −log10 of the molar value. Where only a bound is given, the exact number is not on record here.

T1 sequence (Q9UM73 19-1620): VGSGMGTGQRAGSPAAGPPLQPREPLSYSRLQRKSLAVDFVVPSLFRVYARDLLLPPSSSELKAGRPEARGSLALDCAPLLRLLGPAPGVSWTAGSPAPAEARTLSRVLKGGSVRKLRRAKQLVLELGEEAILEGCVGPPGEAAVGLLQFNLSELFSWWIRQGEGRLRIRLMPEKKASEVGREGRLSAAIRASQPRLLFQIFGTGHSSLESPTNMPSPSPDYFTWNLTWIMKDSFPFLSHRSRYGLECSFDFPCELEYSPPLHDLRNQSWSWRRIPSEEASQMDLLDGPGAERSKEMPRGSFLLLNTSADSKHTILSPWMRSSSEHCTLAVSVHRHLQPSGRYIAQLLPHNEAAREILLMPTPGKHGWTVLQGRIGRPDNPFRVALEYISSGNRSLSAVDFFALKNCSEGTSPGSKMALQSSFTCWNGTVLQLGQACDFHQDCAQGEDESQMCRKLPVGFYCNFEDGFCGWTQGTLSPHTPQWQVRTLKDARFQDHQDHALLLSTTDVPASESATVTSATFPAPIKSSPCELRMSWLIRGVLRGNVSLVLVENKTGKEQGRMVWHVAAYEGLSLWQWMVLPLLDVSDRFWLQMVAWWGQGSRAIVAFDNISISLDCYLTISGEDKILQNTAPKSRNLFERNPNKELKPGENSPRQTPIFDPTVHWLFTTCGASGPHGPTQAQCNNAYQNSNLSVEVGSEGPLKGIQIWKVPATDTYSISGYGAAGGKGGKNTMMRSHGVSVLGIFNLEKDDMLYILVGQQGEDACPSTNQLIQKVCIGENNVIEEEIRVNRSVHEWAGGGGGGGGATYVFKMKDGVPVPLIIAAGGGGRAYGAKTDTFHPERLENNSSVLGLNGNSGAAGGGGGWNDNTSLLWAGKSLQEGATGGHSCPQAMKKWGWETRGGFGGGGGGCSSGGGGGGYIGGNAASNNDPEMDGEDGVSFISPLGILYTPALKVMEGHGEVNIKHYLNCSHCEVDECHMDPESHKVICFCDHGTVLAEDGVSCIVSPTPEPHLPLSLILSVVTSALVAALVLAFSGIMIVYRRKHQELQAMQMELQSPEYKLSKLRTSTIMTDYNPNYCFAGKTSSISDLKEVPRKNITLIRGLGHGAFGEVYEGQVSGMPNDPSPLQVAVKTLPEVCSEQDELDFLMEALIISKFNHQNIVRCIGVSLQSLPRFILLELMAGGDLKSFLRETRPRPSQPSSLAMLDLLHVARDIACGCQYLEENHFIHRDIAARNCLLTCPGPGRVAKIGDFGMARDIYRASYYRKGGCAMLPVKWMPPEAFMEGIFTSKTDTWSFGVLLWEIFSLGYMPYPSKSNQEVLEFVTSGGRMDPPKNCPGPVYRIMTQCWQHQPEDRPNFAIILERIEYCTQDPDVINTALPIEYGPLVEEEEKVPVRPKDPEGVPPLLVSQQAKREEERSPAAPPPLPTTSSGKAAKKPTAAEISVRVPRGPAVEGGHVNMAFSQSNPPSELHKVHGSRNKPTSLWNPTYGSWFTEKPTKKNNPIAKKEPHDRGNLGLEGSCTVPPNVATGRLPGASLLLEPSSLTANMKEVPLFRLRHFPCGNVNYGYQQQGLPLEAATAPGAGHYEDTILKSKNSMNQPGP

This test addresses T1, ALK (Homo sapiens, UniProt Q9UM73).
T1 construct: Kinases are expressed as either kinase domains or full length constructs fused to glutathione S-transferase (GST) or polyHistidine tagged fusion proteins; made in house; host or cells: E. coli or Baculovirus-High Five (not specified which for ALK)
The experiment in a line: inhibitory potency against ALK (kinase inhibition assay). Type of test: biochemical. The text has this:
More specifically, the compounds described herein are screened for kinase inhibition activity as follows. Kinases suitable for use in the following protocol include, but are not limited to: ALK, Jak2, b-Raf, c-Met, Tie-2, FLT3, Abl, Lck, Lyn, Src, Fyn, Syk, Zap-70, Itk, Tec, Btk, EGFR, ErbB2, Kdr, FLT1, Tek, InsR, and AKT.
Kinases are expressed as either kinase domains or full length constructs fused to glutathione S-transferase (GST) or polyHistidine tagged fusion proteins in either E. coli or Baculovirus-High Five expression systems. They are purified to near homogeneity by affinity chromatography as previously described (Lehr et al., 1996; Gish et al., 1995). In some instances, kinases are co-expressed or mixed with purified or partially purified regulatory polypeptides prior to measurement of activity.
Kinase activity and inhibition can be measured by established protocols (see e.g., Braunwalder et al., 1996). In such cases, the transfer of ^33PO4 from ATP to the synthetic substrates poly(Glu, Tyr) 4:1 or poly(Arg, Ser) 3:1 attached to the bioactive surface of microtiter plates is taken as a measure of enzyme activity. After an incubation period, the amount of phosphate transferred is measured by first washing the plate with 0.5% phosphoric acid, adding liquid scintillant, and then counting in a liquid scintillation detector. The IC50 is determined by the concentration of compound that causes a 50% reduction in the amount of ^33P incorporated onto the substrate bound to the plate.
For example, in one method, compounds can be tested for their ability to inhibit kinase activity of baculovirus-expressed ALK using a modification of the ELISA protocol reported for trkA in Angeles, T. S. et al., Anal. Biochem. 1996, 236, 49-55, which is incorporated herein by reference. Phosphorylation of the substrate, phopholipase C-gamma (PLC- ? ) generated as a fusion protein with glutathione-S-transferase (GST) as reported in rotin, D. et al., EMBO J. 1992, 11, 559-567, which is incorporated by reference, can be detected with europium-labeled anti-phosphotyrosine antibody and measured by time-resolved fluorescence (TRF). […] Detection of the phosphorylated product can be performed by adding 100 ? L/well of Eu-N1 labeled PT66 antibody (Perkim Elmer #AD0041). Incubation at 37 degrees C. then proceeds for one hour, followed by addition of 100 ? L enhancement solution (for example Wallac #1244-105). The plate is gently agitated and after thirty minutes, the fluorescence of the resulting solution can be measured (for example using EnVision 2100 (or 2102) multilabel plate reader from Perkin Elmer).
Data analysis can then be performed. IC50 values can be calculated by plotting percent inhibition versus log10 of concentration of compound.
The inhibition of ALK tyrosine kinase activity can also be measured using the recombinant kinase domain of the ALK in analogy to VEDG-R kinase assay described in J. Wood et al., Cancer Res 2000, 60, 2178-2189. In vitro enzyme assays using GST-ALK protein tyrosine kinase can be performed in 96-well plate as a filter binding assay in 20 mMTris.HCl, pH 7.5, 3 mM MgCl2, 10 mM MnCl2, […], 0.1 ? Ci/assay (=30 ? L) [ ? -^33P]-ATP, 2 ? M ATP, 3 ? g/mL poly (Glu, tyr 4:1) Poly-EY (sigma P-0275), 1% DMSO, 25 ng ALK enzyme. Assays can be incubated for 10 min, at ambient temperature. Reactions can be terminated by adding 50 ? L of 125 mM EDTA, and the reaction mixture can be transferred onto a MAIP Multiscreen plate (Millipore, Bedford, Mass.) previously wet with methanol, and rehydrated for 5 minutes with water. Following washing (0.5% H3PO4), plates can be counted in a liquid scintillation counter. IC50 values are calculated by linear regression analysis of the percentage inhibition.
Consider `COc1cc(P(C)(C)=O)ccc1Nc1ncc(C)c(Nc2ccccc2S(=O)(=O)C(C)C)n1` [Example 21, N^2-[4-(Dimethylphosphoryl)-2-methoxyphenyl]-5-methyl-N^4-[2-(propan-2-ylsulfonyl)phenyl]pyrimidine-2,4-diamine], for which the pIC50 is 8.00 to 8.70.

Take `CP(C)(=O)c1ccc(Nc2ncc(C(F)(F)F)c(NCCc3c[nH]c4ccccc34)n2)cc1` [Example 10, N^2-[4-(dimethylphosphoryl)phenyl]-N^4-[2-(1H-indol-3-yl)ethyl]-5-(trifluoromethyl)pyrimidine-2,4-diamine]: the pIC50 was under 8.00. As for `COc1cc(P(C)(C)=O)ccc1Nc1ncc(Cl)c(Nc2ccccc2S(=O)(=O)C(C)C)n1` [Example 17, 5-chloro-N-[4-(dimethylphosphoryl)-2-methoxyphenyl]-N^4-[2-(propan-2-ylsulfonyl)phenyl]pyrimidine-2,4-diamine], the figure is over 8.70. `CP(C)(=O)c1ccc(Nc2ncc(C(F)(F)F)c(NC3CCCO3)n2)cc1` (stereo not drawn) [Example 6, N^2-[4-(dimethylphosphoryl)phenyl]-N^4-(tetrahydrofuran-2-yl)-5-(trifluoromethyl)pyrimidine-2,4-diamine] gave a negative-log IC50 (pIC50) of under 8.00. In turn, `CN1CCN(c2ccc(CNc3nc(Nc4ccc(P(C)(C)=O)cc4)ncc3C(F)(F)F)cc2)CC1` [Example 13, N^2-[4-(dimethylphosphoryl)phenyl]-N^4-[4-(4-methylpiperazin-1-yl)benzyl]-5-(trifluoromethyl)pyrimidine-2,4-diamine] had a negative-log IC50 (pIC50) of under 8.00.

Take `CP(C)(=O)c1ccc(Nc2ncc(C(F)(F)F)c(NCC34CC5CC(CC(C5)C3)C4)n2)cc1` [Example 12, N^2-[4-(dimethylphosphoryl)phenyl]-N′-(tricyclo[3.3.1.1^3,7]dec-1-ylmethyl)-5-(trifluoromethyl)pyrimidine-2,4-diamine]: the pIC50 was under 8.00.
